Measured values reported in PubChem BioAssay (NCI).
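The concentration for 50% growth inhibition is given as GI50. TGI: concentration producing complete growth inhibition.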

Key:
Assay in all cases: DTP human tumour cell line panel, 384-well format
HCT-116 colon = tested on: HCT-116 colon
SF-295 CNS = tested on: SF-295 CNS
SK-OV-3 ovarian = tested on: SK-OV-3 ovarian
NCI-H322M lung = tested on: NCI-H322M lung
SK-MEL-28 melanoma = tested on: SK-MEL-28 melanoma
SK-MEL-2 melanoma = tested on: SK-MEL-2 melanoma
UACC-257 melanoma = tested on: UACC-257 melanoma
MOLT-4 leukemia = tested on: MOLT-4 leukemia
UACC-62 melanoma = tested on: UACC-62 melanoma
MDA-MB-231 breast = tested on: MDA-MB-231 breast
NCI/ADR-RES ovarian = tested on: NCI/ADR-RES ovarian
LOX IMVI melanoma = tested on: LOX IMVI melanoma
MDA-MB-468 breast = tested on: MDA-MB-468 breast

## CC[C@H](NC(=O)[C@H](CS(=O)(=O)CC1CC1)N[C@@H](c1ccc(F)cc1)C(F)(F)F)C(=O)C(=O)NC1CC1
HCT-116 colon
  GI50: > 100 µM
  TGI: > 100 µM
SF-295 CNS
  GI50: > 100 µM
  TGI: > 100 µM
SK-OV-3 ovarian
  GI50: > 100 µM
  TGI: > 100 µM
NCI-H322M lung
  GI50: > 100 µM
  TGI: > 100 µM
SK-MEL-28 melanoma
  GI50: > 100 µM
  TGI: > 100 µM
SK-MEL-2 melanoma
  GI50: > 100 µM
  TGI: > 100 µM
UACC-257 melanoma
  GI50: > 100 µM
  TGI: > 100 µM
MOLT-4 leukemia
  GI50: 29.5 µM
  TGI: > 100 µM
UACC-62 melanoma
  GI50: > 100 µM
  TGI: > 100 µM
MDA-MB-231 breast
  GI50: > 100 µM
  TGI: > 100 µM
NCI/ADR-RES ovarian
  GI50: > 100 µM
  TGI: > 100 µM
LOX IMVI melanoma
  GI50: > 100 µM
  TGI: > 100 µM
MDA-MB-468 breast
  GI50: 22.8 µM
  TGI: 67.5 µM
